Laboratory results: patent US11597951B2 (Lygos, Inc., priority 2018, dated 2023)

What was measured:
[1] = test system: MdcY-PMdcL based biosensor; experiment: MdcY malonate transcription factor biosensor using exogenously added malonate; type: cell-based, E. coli
Text: S14 employs the malonate responsive transcription factor, MdcY (SEQ ID NO:3), and the MdcY-responsive promoter, PMdcL (SEQ ID NO:6) derived from Acinetobacter calcoaceticus. This biosensor of this disclosure was constructed using an E. coli vector backbone with ampicillin resistance marker and ColE1 origin of replication; the tetA tetracycline resistance gene was placed under control of the PMdcL promoter.
Nucleic acids encoding for MdcY and TetA gene products, PMdcL promoter, and the E. coli vector backbone were synthetically produced; the biosensor vectors were than constructed by PCR amplification of the nucleic acids and subsequent cloning into the E. coli vector backbone. The plasmids were transformed into chemically competent E. coli DH10b and the resulting clones plated on LB agar plates containing 50 μg/ml carbenicillin (Cb^50). Individual colonies were grown overnight in 3 ml LB medium supplemented with antibiotic and the sequences of the purified plasmid were verified.
E. coli strain K12 was co-transformed with plasmids S14 and individual colonies isolated from LB agar plates (Cb^50). Colonies were grown in 25 ml LB broth (Cb^50) until reaching an optical density at 600 nm (OD600) of approximately 0.50, at which point in time cell stocks were prepared and stored at −80° C.; cell stocks were 0.5 ml cell culture and 0.5 ml of a 50% v/v glycerol solution.
An aliquot of biosensor cell stock was thawed and used to inoculate 50 ml of LB medium (Cb^50) in a 250 ml, baffled Erlenmeyer flask. Cultures were incubated for 2 hours at 37° C.; subsequently, 0.6 ml biosensor culture was added to 48-well plates prepared with 2.3 ml LB medium)(Cb^50) supplemented with tetracycline and malonate acid at the desired concentration (n=4). Plates were than grown at 30° C. on an orbital titer plate shaker. Following 12 hours incubation, 200 μl samples were taken for OD600 measurement.

[2] = Malonic acid solubility in water; type: physicochemical
E. coli strain K12 = experiment: In vivo production of malonate in E. coli using S. cerevisiae EHD3 malonyl-CoA hydrolases; type: cell-based
Method: This example describes the host cells and culture conditions resulting in the in vivo production of malonate using a heterologous EHD3 malonyl-CoA hydrolase in an E. coli host cell. E. coli strain K12 was transformed with vectors containing wild-type EHD3, EHD3 (E124A), […], EHD3 (E124S), EHD3 (E124A, E308V) or an empty vector negative control. Transformants were streaked on LB agar plates (Cm^50, 2% glucose). Following overnight growth at 37° C., individual colonies were inoculated into 3 ml LB (Cm^50, 2% glucose) in a 48-well plate. Cultures were incubated on a plate shaker at 37° C. for 6 hours, at which point each culture was inoculated 1% v/v into M9 minimal medium supplemented with Cm^50 and a mixed carbon source (0.5% glycerol, 0.05% glucose, 0.2% lactose) in a 48-well plate. Cultures were incubated on a plate shaker at 30° C., and a 500 μL sample of the fermentation broth was removed for analysis after 48 hours incubation.
Samples were centrifuged (×6000 g, 1 min) and the supernatant analyzed for malonate quantification. Chemical standards were prepared in […] of water. The separation of malonate was conducted on a Shimadzu Prominence XR UPLC connected to a refractive index detector and UV detector monitoring 210 nm. Product separation was performed on a Bio-Rad Fermentation Monitoring column. The UPLC was programmed to run isocratically using 5 mM H2504 as the eluant with a flow rate of 600 μL per minute. 10 μL were injected per sample, and the sample plate temperature was held at 4° C. Malonate standards began eluting at […]. […] Malonate concentrations (mg/1) were calculated by comparison to a standard curve prepared from authentic malonate.

[3] = test system: S. cerevisiae BY4741 yeast cells; experiment: Production of malonate in yeast expressing various malonyl-CoA hydrolases; type: cell-based; conditions: S. cerevisiae BY4741, SD-Ura, 30° C., 140 h of fermentation; mean±S.D.; n=4
Text: Nucleic acids encoding various malonyl-CoA hydrolases provided by this disclosure [EHD3 (E124S), B9IZZ9-1, F0PNG8-1, H0NHL7, C3ALI3-1, Q81DR3-1, A4XS22-1, E2XN63-1, A5W8H3-1 and F6AA82-2] were amplified by PCR from plasmids using the primers listed in Table 4. The purified PCR products were cloned downstream of the TEF1 promoter and upstream of the CYC1 terminator in a shuttle vector containing an ampicillin resistance cassette, a PMB1 origin of replication, a CEN/ARS origin of replication and a URA3 selection marker. The resulting plasmids were transformed into E. coli competent host cells and selected on LB agar plates containing Cb^50. Following overnight incubation at 37° C., individual colonies were inoculated in 2 ml of LB-Cb^50 in a 48-well plate and grown for 5 h at 37° C. on a shaker before the plasmids were isolated and confirmed by sequencing.
S. cerevisiae BY4741 yeast cells were used as host for the vectors for expression of the various malonyl-CoA hydrolases. The plasmid vectors were individually introduced into the yeast host cells using standard procedures. […]
An individual colony for each transformant picked was inoculated into a 50 μl aliquot of SD-Ura medium in a 96-well plate. […] No malonate was detected in samples consisting of medium not inoculated with yeast cells. […]

[4] = plasmid S14, tetracycline, 12 hours, 30° C.

O=C(O)CC(=O)O [malonic acid, propanedioic acid]
biosensor response ([1]; cultures harboring S14): dose-dependent response | dynamic range (maximum difference in OD600 between fully induced samples and samples absent malonate) [1, 4]: 1.2 OD600 units | exogenously added malonate concentration over which an increase in OD600 was observed [1, 4]: 0.5 to 1 mM | Malonic acid solubility in water ([2]; 5 ° C.): 53.92 % (w/w) | Malonic acid solubility in water ([2]; 10 ° C.): 55.75 % (w/w) | Malonic acid solubility in water ([2]; 15 ° C.): 57.63 % (w/w) | Malonic acid solubility in water ([2]; 20 ° C.): 59.68 % (w/w) | Malonic acid solubility in water ([2]; 25 ° C.): 61.69 % (w/w) | Malonic acid solubility in water ([2]; 30 ° C.): 63.5 % (w/w) | Malonic acid solubility in water ([2]; 35 ° C.): 65.28 % (w/w) | Malonic acid solubility in water ([2]; 40 ° C.): 67.43 % (w/w) | Malonic acid solubility in water ([2]; 45 ° C.): 68.85 % (w/w) | Malonic acid solubility in water ([2]; 50 ° C.): 70.33 % (w/w) | Malonic acid solubility in water ([2]; 55 ° C.): 72.38 % (w/w) | Malonic acid solubility in water ([2]; 60 ° C.): 74.29 % (w/w) | Malonic acid solubility in water ([2]; 65° C.): 75.96 % (w/w) | solubility limit ([2]; 65° C.): 76 % wt/wt

B1: EHD3 (E124S) (protein, UniProt P28817 1-500, looked up, variant E124S)
Small ribosomal subunit …: MLRNTLKCAQLSSKYGFKTTTRTFMTTQPQLNVTDAPPVLFTVQDTARVITLNRPKKLNALNAEMSESMFKTLNEYAKSDTTNLVILKSSNRPRSFCAGGDVATVAIFNFNKEFAKSIKFFTDSYSLNFQIATYLKPIVTFMDGITMGGGVGLSIHTPFRIATENTKWAMPEMDIGFFPDVGSTFALPRIVTLANSNSQMALYLCLTGEVVTGADAYMLGLASHYVSSENLDALQKRLGEISPPFNNDPQSAYFFGMVNESIDEFVSPLPKDYVFKYSNEKLNVIEACFNLSKNGTIEDIMNNLRQYEGSAEGKAFAQEIKTKLLTKSPSSLQIALRLVQENSRDHIESAIKRDLYTAANMCMNQDSLVEFSEATKHKLIDKQRVPYPWTKKEQLFVSQLTSITSPKPSLPMSLLRNTSNVTWTQYPYHSKYQLPTEQEIAAYIEKRTNDDTGAKVTEREVLNHFANVIPSRRGKLGIQSLCKIVCERKCEEVNDGLRWK
malonate production relative to wild-type EHD3 (E. coli strain K12; E. coli K12, 48 hours): significant (p<0.05, t-test) increase | Malonate Concentration (E. coli strain K12; E. coli K12, M9 minimal medium, 30° C., 48 hours, mean±std dev, n=3): 82.3 ± 7.8 mg/L | Malonate Peak Area [3]: 94,721 ± 8,115
